Experimental data taken from US20220117929A1, “METHOD FOR PREVENTING OR TREATING HIGH-GRADE SEROUS CARCINOMA” (Buddhist Tzu Chi Medical Foundation, priority 2020, published 2022).
≈ marks a conversion by molar mass, not a printed value. Like-named read-outs stand apart in the source and are kept apart here.

Assays:
ALDH^+ kuramochi cells [1] = experiment: XTT viability, BP combined with cisplatin or paclitaxel; format: cell-based, human; conditions: 72 hours
Experimental: To determine whether BP affects the toxicity of these chemotherapeutic agents, BP was added to cisplatin and paclitaxel treatment of ovarian cancer cells in vitro. ALDH^+ kuramochi cells (2500 ALDH^+ cells/well) in a 96-well plate were treated with BP (25 μg/ml) in combination with cisplatin (0, 5, or 10 μM) or with paclitaxel (0, 10 or 50 nM). Each experiment was conducted in triplicate. Plates were incubated at 37° C. with 5% CO2 for 72 hours. Viable cells were counted by the XTT assay as describe above.

ALDH^+ kuramochi cells [2] = experiment: XTT cell viability assay, ALDH+ kuramochi cells (cancer stem cells); format: cell-based; conditions: Homo sapiens, 48 h, BP 0-400 μg/ml
Experimental: To evaluate and characterize the kuramochi cells, the expression of the cancer stem cell (CSC) marker, ALDH, was assessed using flow cytometry. Specifically, fluorescence-activated cell sorting (FACS) was used to isolate ALDH^+ cells from the kuramochi cell line. Then, the Aldefluor assay kit (Stem Cell Technologies, Cambridge, Mass., USA) was used to determine the ALDH activity. The activated Aldefluor reagent was used to trypsinized and incubated with cells for 50 min at 37° C. Cells were incubated with the inhibitor, N,N-diethylaminobenzaldehyde (DEAB), as control cells to identify for ALDH^+ and ALDH^− cell populations. […]
(§1) The half-maximal inhibitory concentration (IC50) of BP is determined in ALDH^+ and ordinary kuramochi cells. IC50 is determined by assessing the cell viability under different concentration of BP. For example, cell viability was determined by XTT assay (Biological Industries Ltd., Kibbutz Beit Haemek, Israel) following the instruction provided by the manufacturer. […] After 2-5 h of incubation at 37° C., plates were analyzed by spectrophotometry to determine the optical density of the solutions at a wavelength of 450 nm (reference wavelength, 650 nm) to determine viable cell number. […] The equation is expressed as follows: Y=d+(a−d)/(1+(X/c)^B), where Y is the response, and X is the concentration. […]

ALDH^+ kuramochi cells [3] = experiment: Matrigel-coated Boyden chamber invasion assay; format: cell-based, human; conditions: 24 hours, vs untreated cells
Experimental: For assessment of cell invasion, the invasion assays were carried out in Matrigel-coated Boyden chambers (filter pore size, 8 μM) in 24-well plates (BD). In the top wells, culture medium without serum was seeded with 5×10^4 cells. The bottom wells were added with medium containing 10% FBS and BP (0, 100, or 200 μg/ml). Treatments were added to both upper and lower chambers as indicated. After 24 hours, the free cells were removed gently with a cotton swab. The invading cells were fixed with 4% formaldehyde and Giemsa stained. The slides were air-dried and photographed, and the cells were counted.

[4] = system: ALDH^+ kuramochi xenograft; experiment: Western blot of caspases in xenograft tumors; format: in vivo, mice; conditions: xenograft treated with BP vs control without BP
Experimental: (§2) Accordingly, the effect of BP on the apoptotic signaling pathway was further investigated by quantifying the amount of activated caspase proteins by western blot analysis. Specifically, ALDH^+ kuramochi cells were treated with BP (at 100 μg/ml for 48 hours) and lysed. The cell lysates were loaded onto a gradient 5-20% sodium dodecyl sulfate-polyacrylamide gradient gel. After electrophoretic separation, the proteins were transferred to a polyvinylidene difluoride membrane (Bio-Rad). The membrane was blocked at room temperature in a solution of 3% non-fat dry milk in PBS and 0.1% Tween-20 and then rinsed in PBS/0.1% Tween-20. Blots were incubated with diluted solutions of polyclonal anti-caspase 3 and 8, or anti-cleaved caspase 3, 7, 8, or 9 antibodies (1:200, St. John's Lab, London, UK) and treated with 1:5000 diluted anti-rabbit immunoglobulin G horseradish peroxidase (HRP) for staining (Amersham GE, Taipei, Taiwan). Beta-actin and tubulin proteins (Santa Cruz Biotechnology, Santa Cruz, Calif., USA) were used as internal controls. HRP signals were detected using an electrochemiluminescence kit (Promega, Fitchburg, Wis., USA).
(§3) With BP treatment (200 mg/kg), the tumor volumes were smaller than those of control mice treated with the vehicle starting from day 11 to day 26 (p<0.001), as shown in FIG. 7A. […] TUNEL assay was also carried out to evaluate cell viability in the xenograft tumors, using the reagents and procedures as described above but with tumor tissue fixed in formalin and embedded in paraffin and sectioned with a 3 m of thickness. Also, protein levels of cleaved caspase 3, caspase 9, and caspase 7 were examined using western blots as described above to examine apoptotic pathway activation in xenograft tumors.

[5] = system: ALDH^+ kuramochi xenograft; experiment: Subcutaneous xenograft tumor growth and histology in NOD-SCID mice; format: in vivo
Experimental: To investigate tumor growth in vivo, the subcutaneous xenograft model is used widely in the research and allows easy detection of tumor growth and size. Herein, human ovarian cancer xenografts were used to investigate the tumor-inhibiting effect of BP in mice. The animal experiment procedures were approved by the Animal Research and Care Committee of the Buddhist Tzu Chi General Hospital (106-48). All procedures were performed in compliance with the National Institutes Health Guide for the Care and Use of Laboratory Animals. Non-obese, diabetic-severe combined immune deficiency mice (NOD-SCID) (strain NOD.CB17-Prkdcscid/JTcu) purchased from Tzu Chi University were used for these experiments.
ALDH^+ kuramochi cells (1×10^6) were injected subcutaneously into the backs of 4 to 5-week-old female mice. After tumors had grown to a volume of 50 mm^3, mice were separated into two groups (control and treatment groups; n=6 in each group). Controls were treated with vehicle alone (10% dimethyl sulfoxide (DMSO), 20% ethanol in PBS), and the experimental group was treated with different doses of BP (100 or 200 mg/kg) for 5 days. Tumor dimensions (length and width) were measured with calipers, and the tumor volume was determined using the following formula: volume=½ (length×width^2). […] The morphology and cell density were observed and recorded.

[6] = system: ALDH^+ kuramochi xenograft; experiment: TUNEL assay of xenograft tumor tissue; format: in vivo, mice; conditions: BP 200 mg/kg, p<0.001
Experimental: (§4) The level of apoptosis was compared between ALDH^+ kuramochi cells with and without BP treatment using the terminal deoxynucleotidyl transferase dUTP nick end labeling (TUNEL) assay. TUNEL assay was carried out to evaluate cell apoptosis using a TUNEL Assay Kit (Roche, Ind., USA) according to the manufacturer's instructions. Specifically, ALDH^+ kuramochi cells were seeded with 1×10^5 cells in each well of 12-well culture plates. Cultured cells were allowed to attach for 24 hours, and then treated with 200 μg/ml of BP for 48 hours. Adherent tumor cells were fixed in 4% paraformaldehyde. TUNEL probes were used to detect breaks in DNA strands, followed by incubation in a permeabilization solution for 2 min on ice. Cells were washed twice in phosphate buffered saline (PBS) and the TUNEL reaction mixture was added, followed by incubation at 37° C. for 60 min in a humidified atmosphere in the dark. Samples were washed in PBS twice and observed under a fluorescence microscope.
as §3, with “Also, protein levels of cleaved caspase 3, caspase 9, and caspase 7 were examined using western blots as described above to examine apoptotic pathway activation in xenograft tumors.” left out

ALDH^+ kuramochi cells [7] = experiment: Western blot of cleaved caspases in cultured cells; format: cell-based, human; conditions: BP 100 μg/ml or 200 μg/ml, 48 hours
From the text: as §2, with “Specifically, ALDH^+ kuramochi cells were treated with BP (at 100 μg/ml for 48 hours) and lysed.” left out

ALDH^+ kuramochi cells [8] = experiment: TUNEL apoptosis assay in cultured cells; format: cell-based, human; conditions: BP 200 μg/ml for 48 hours vs no BP, p<0.01
Experimental: as §4

ALDH^+ kuramochi cells [9] = experiment: Boyden chamber (transwell) cell migration assay; format: cell-based, human; conditions: 48 hours, vs untreated cells
Experimental: For assessment of cell migration, kuramochi cells (5×10^4 cells) were seeded into the top well of a Boyden chamber (24-well transwell) with a pore size of 8 m (Costar, Corning Inc., Corning, N.Y., USA). The cells were allowed to migrate toward the lower well filled with the same culture medium with BP at a concentration of 100 or 200 μg/ml or without BP treatment. After 48 hours of migration, crystal violet (Sigma) was used to stain the migrated cells. The stained cells were counted using a bright-field microscope. Each experiment was repeated three times.

ordinary kuramochi cells = experiment: XTT cell viability assay, ordinary kuramochi cells; format: cell-based; conditions: Homo sapiens
Experimental: Kuramochi cells is a high-grade serous ovarian carcinoma (HGSOC) cell line purchased from Japan Cell Bank. Gene expressions of this cell line was previously confirmed to be mimicking HGSOC (Domcke, S.; Sinha, R.; Levine, D. A.; Sander, C.; Schultz, N. Nat. Commun. 2013, 4, 2126). The cell line was maintained in Dulbecco's Modified Eagle Medium (DMEM; Sigma, St. Louis, Mo., USA) supplemented with 10% fetal bovine serum (FBS), 0.1% non-essential amino acids (NEAA), 2 mM L-glutamine, and 1% penicillin-streptomycin. The cells were incubated at 37° C. with 5% CO2.
as §1

CCCC=C1OC(=O)c2ccccc21 [BP, n-butylidenephthalide]
cell viability with cisplatin plus BP vs cisplatin without BP (ALDH^+ kuramochi cells [1]; BP 25 μg/ml with cisplatin 0, 5 or 10 μM, 5 μM p<0.05, 0 and 10 μM p<0.01): significantly lowered | numbers of viable cells with paclitaxel plus BP vs paclitaxel without BP (ALDH^+ kuramochi cells [1]; BP 25 μg/ml with zero or low concentration of paclitaxel (0, 10 nM), p<0.01): significantly less | IC50 (ALDH^+ kuramochi cells [2]): 317 µg/mL (≈ 1690 µM) | invasion of ALDH^+ cells (ALDH^+ kuramochi cells [3]; BP 100 μg/ml, p<0.01): significantly decreased | invasion of ALDH^+ cells (ALDH^+ kuramochi cells [3]; BP 200 μg/ml, p<0.001): significantly decreased | protein level of caspase 7 in xenograft [4]: increased | protein level of caspase 9 in xenograft [4]: increased | protein level of cleaved caspase 3 in xenograft [4]: increased | tumor volumes vs vehicle control ([5]; BP 200 mg/kg for 5 days, day 11 to day 26, p<0.001): smaller | nuclei of xenograft tumors (H & E staining) vs control ([5]; BP-treated xenograft tumors): denser | TUNEL^+ cells in xenograft tumors [6]: significantly more | protein level of cleaved caspase 7 (ALDH^+ kuramochi cells [7]): increased | protein level of cleaved caspase 8 (ALDH^+ kuramochi cells [7]): increased | protein level of cleaved caspase 9 (ALDH^+ kuramochi cells [7]): increased | protein level of cleaved caspase 3 (ALDH^+ kuramochi cells [7]; p<0.001): increased | TUNEL^+ cells (ALDH^+ kuramochi cells [8]): Significantly more | migration of ALDH^+ cells (ALDH^+ kuramochi cells [9]; BP 100 μg/ml, p<0.01): significantly decreased | migration of ALDH^+ cells (ALDH^+ kuramochi cells [9]; BP 200 μg/ml, p<0.001): significantly decreased | IC50 (ordinary kuramochi cells; 48 h of culture, BP 0-240 μg/ml, read-out: IC50 of BP for the ordinary kuramochi cells (figure legend)): 206 µg/mL (≈ 1100 µM) | IC50 (ordinary kuramochi cells; 48 h of treatment, XTT, 4PL fit, read-out: IC50 of BP for ordinary kuramochi cells): 206 µg/mL (≈ 1100 µM)
